# In patent US6013626A (priority 1995, dated 2000):
# Values joined by “and” are separate entries in the source; they are usually repeats but may differ in a detail not shown here. Equal values may be shown once. “Also recorded” adds a separate entry of the source. Read-outs that look alike come from different tables or passages of the source.
# Assays:
# [1] = tested on: murine leukemia (L1210 or P388), murine solid tumor, human solid tumor and low malignancy fibroblast (LML)
# [2] = tested on: tumor (leukemia) and normal cell (CFUGM) lines; type: cell-based; conditions: μg/disk per compound where printed
# [3] = tested on: human tumor cell lines such as KB and LoVo; test: Cytotoxicity against human tumor cell lines such as KB and LoVo; type: cell-based
# [4] = tested on: Colon 38 (colon adenocarcinoma #38)
# Procedure: (§1) Gross log kill is defined as T-C/3.2 Td where T is the median time in days for the tumors of the treated group to reach 750 mg, C is the median time in days for the tumors of the control group to reach 750 mg, and Td is the tumor volume doubling time.
# [5] = tested on: microtubule assembly; conditions: C. D. Smith et al. 1994; compared with vinblastine; cited from earlier work
# [6] = tested on: fungi, especially strains of Cryptococcus; conditions: R. E. Schwartz et al. 1990; cited from earlier work
# [7] = tested on: LNCaP Human Prostate; test: In vivo activity, SC LNCaP tumor; design: species or system mice; conditions: Exp 1841, 6 inj. IV, total dose 6.5 mg/kg
# Procedure: as §1
# [8] = tested on: murine and human tumors implanted in mice; conditions: G. Trimurtulu et al. 1994; R. Barrow et al. 1995; cited from earlier work
# [9] = tested on: M17/0 (Adr. Sens.); test: In vivo activity, SC M17/0 tumor; design: species or system mice; conditions: Exp 1833; SC M17/0 (Adr. Sens.); 5 inj. IV; total dose 5.4 mg/kg
# Procedure: as §1
# [10] = tested on: Mam 16/C; test: In vivo activity, SC Mam 16/C tumor; design: species or system mice
# Procedure: as §1
# [11] = tested on: H125 Human Adenosq-lung; type: in vivo, SCID mice; conditions: Exp 1823; SC H125 Human Adenosq-lung; 8 inj. IV; total dose 14.4 mg/kg
# Procedure: as §1
# [12] = tested on: murine and human tumors implanted in mice; type: in vivo; conditions: for tumor burden T/C values: summary: Cryptophycin 1 in five early stage murine and two early stage human tumors, Cryptophycin 8 in all tumors tested to date; for in vivo antitumor activity: tumors implanted in mice
# Procedure: as §1
# [13] = tested on: Mam 16/Taxol (taxol-resistant mammary #16/C/RP); test: In vivo activity, SC Mam 16/Taxol tumor; design: species or system mice; conditions: Exp 1733, 5 inj. IV, total dose 16.5 mg/kg
# Procedure: as §1
# [14] = tested on: Human Sm Cell L. DMS273; test: In vivo activity, SC DMS273 tumor; conditions: Exp 1596; SC Human Sm Cell L. DMS273 SCID; 6 inj. IV; total dose 7.3 mg/kg
# Procedure: as §1
# [15] = tested on: Colon 51 (colon adenocarcinoma #51); test: In vivo activity, SC Colon 51 tumor; design: species or system mice
# Procedure: as §1
# [16] = tested on: MX-1 Human Breast; test: In vivo activity, SC MX-1 tumor; design: species or system SCID mice; conditions: Exp 1806; SC MX-1 Human Breast; 8 inj. IV; total dose 12 mg/kg
# Procedure: as §1
# [17] = Toxicity in mice; type: in vivo; conditions: for cause of lethal toxicity observed during testing: in vivo testing
# [18] = Solvolysis (methanolysis) of the C-D ester bond; type: physicochemical; conditions: methanol used in isolation scheme
# [19] = tested on: Panc 03 (pancreatic ductal adenocarcinoma #03); conditions: for Log Kill: 9 inj. IV
# Procedure: as §1
# [20] = tested on: colon adenocarcinoma #33; test: In vivo activity, early stage colon adenocarcinoma #33; design: species or system mice; conditions: 8.1 mg/kg
# Procedure: Gross log kill is defined as T-C/3.2 Td where T is the median time in days for the tumors of the treated group to reach 750 mg, C is the median time in days for the tumors of the control group to reach 750 mg, and Td is the tumor volume doubling time (T. H. Corbett et al., Cytotoxic Anticancer Drugs: Models and Concepts for Drug Discovery and Development, pp 35-87; Kluwer: Norwell, 1992).
# [21] = tested on: A-10 rat aortic smooth muscle cells; type: cell-based
# Procedure: A-10 cells were grown to near-confluency on glass coverslips in BME/10% FBS. Compounds in PBS were added to the indicated final concentrations and cells were incubated for an additional 24 hours. For the staining of microtubules and intermediate filaments, the cells were fixed with cold methanol and incubated with PBS containing 10% calf serum to block nonspecific binding sites. Cells were then incubated at 37° C. for 60 min with either monoclonal anti-β-tubulin or with monoclonal anti-vimentin at dilutions recommended by the manufacturer. Bound primary antibodies were subsequently visualized by a 45-minute incubation with fluorescein-conjugated rabbit antimouse IgG. The coverslips were mounted on microscope slides and the fluorescence patterns were examined and photographed using a Zeiss Photomicroscope I11 equipped with epifluoroescence optics for fluorescein. […] PBS containing 100 nM TRITC-phalloidin was then added and the mixture was allowed to incubate for 45 min at 37° C. The cells were washed rapidly three times with PBS before the coverslips were mounted and immediately photographed as described above.
# After 24 hours, microtubules and vimentin intermediate filaments were visualized by indirect immunofluorescence and microfilaments were stained using TRITC-phalloidin. The morphological effects of each drug were examined.
# After 24 hours, microtubule organization was examined by immunofluorescence as described above.
# The cells were then washed and incubated in drug-free medium for periods of 1 hour or 24 hours.
# [22] = tested on: SKOV3 cells; test: Reversibility of inhibition of SKOV3 cell proliferation; type: cell-based, human; conditions: SKOV3 cells treated 24 hours with IC50 dose, then drug-free medium
# Procedure: After 24 hours the cells were washed and incubated in drug-free medium for the time indicated. The cell density was determined by sulforhodamine B (SRB) staining as described in the Experimental Section, and is expressed as the mean ± sd adsorbance at 560 nm for triplicate samples in one of three experiments.
# [23] = μg/disk differs per compound (0.2-250 μg/disk)
# [24] = Exp 1769, SC C38, 15 inj. IV, 45 mg/kg TD
# [25] = pancreatic ductal adenocarcinoma #03, 8.1 mg/kg
smiles,measurement,setting,value
"COc1cc([C@@H]2c3cc4c(cc3[C@@H](O[C@@H]3O[C@@H]5CO[C@@H](C)O[C@H]5[C@H](O)[C@H]3O)[C@H]3COC(=O)[C@H]23)OCO4)cc(OC)c1O [VP-16, etoposide, reference compound]","Corbett Assay, Differential in Zone Units",[1]; [23],350 zone units and 530 zone units
same,"Valeriote Assay, Differential in Zone Units",[2],260 zone units
COc1ccc(C[C@H]2NC(=O)/C=C/C[C@@H]([C@H](C)/C=C/c3ccccc3)OC(=O)[C@H](CC(C)C)OC(=O)C(C)(C)CNC2=O)cc1Cl [Cryptophycin 51],IC50's,[3],2 to 4 ng/mL
COc1ccc(C[C@H]2NC(=O)/C=C/C[C@@H]([C@H](C)[C@H]3O[C@@H]3c3ccccc3)OC(=O)[C@H](CC(C)C)OC(=O)[C@H](C)CNC2=O)cc1Cl [Cryptophycin 1],% Body Wt. Loss at Nadir,"[4]; Exp 1560, SC Colon 38, 8 inj. IV, total dose 10.3 mg/kg",Gain
same,inhibition of microtubule assembly,[5],irreversibly inhibiting mircotubule assembly
same,"Corbett Assay, Differential in Zone Units",[1],> 400
same,"Corbett Assay, Type of Cytotoxicity",[1]; [23],E/T
same,antifungal activity,[6],"very active against fungi, especially strains of Cryptococcus"
same,Cures,[7],0/5
same,Log Kill,[7],< 1
same,activity against subcutaneously transplanted solid tumors in mice,[8],very active against subcutaneously transplanted solid tumors in mice
same,Cures,[9],0/5
same,Cures,"[10]; Exp 1720, 5 inj. IV, total dose 13.2 mg/kg",0/5
same,Cures,[11],0/5
same,Log Kill,[11],1.1
same,"log kill values, range over trials",[12]; summary b714,<1 to 2
same,tumor burden T/C values,[12],less than 10%
same,in vivo antitumor activity,[12],shows antitumor activity; also recorded: very promising activity
same,Cures,[13],0/4
same,% Body Wt. Loss at Nadir,[14],0%
same,Cures,[14],0/5
same,Log Kill,[14],< 1
same,Cures,"[15]; Exp 1636, 7 inj. IV, total dose 28.1 mg/kg",0/5
same,Cures,[16],0/5
same,Log Kill,[16],2.0
same,cause of lethal toxicity observed during testing,[17],attributed to leucopenia
COc1ccc(C[C@H]2NC(=O)/C=C/C[C@@H]([C@H](C)[C@H]3O[C@@H]3c3ccccc3)OC(=O)[C@H](CC(C)C)OC(=O)[C@H](C)CNC2=O)cc1 [Cryptophycin 2],"Corbett Assay, Differential in Zone Units",[1]; [23],> 400 zone units
same,"Corbett Assay, Type of Cytotoxicity",[1]; [23],E/T
COc1ccc(CC2NC(=O)CCCC(C(C)C3OC3c3ccccc3)OC(=O)C(CC(C)C)OC(=O)C(C)CNC2=O)cc1Cl (stereo not shown) [Cryptophycin 35],in vivo antitumor activity,[12],Good in vivo activity
COc1ccc(C[C@H]2NC(=O)/C=C/C[C@@H]([C@H](C)[C@H]3O[C@@H]3c3ccccc3)OC(=O)[C@H](CC(C)C)OC(=O)CCNC2=O)cc1Cl [Cryptophycin 21],susceptibility to methanolysis,[18],much more susceptible to methanolysis than Cryptophycin 1
same,in vivo antitumor activity,[12],inactive
same,Log Kill,"[19]; Exp 1813, SC P03, 27 mg/kg TD",None
CC(C)C[C@@H]1OC(=O)[C@H](C)CNC(=O)[C@@H](Cc2ccc(O)c(Cl)c2)NC(=O)/C=C/C[C@@H]([C@H](C)[C@H]2O[C@@H]2c2ccccc2)OC1=O [Cryptophycin 16],Log Kill,"[19]; Exp 1878, SC P03, 82 mg/kg TD",None
COc1ccc(C[C@H]2NC(=O)/C=C/C[C@@H]([C@H](C)/C=C/c3ccccc3)OC(=O)[C@H](CC(C)C)OC(=O)[C@H](C)CNC2=O)cc1Cl [Cryptophycin 3],"Corbett Assay, Differential in Zone Units",[1],> 400
same,"Corbett Assay, Type of Cytotoxicity",[1]; [23],E/T
same,IC50's,[3],2 to 4 ng/mL
"CC(=O)O[C@H]1C(=O)[C@@]2(C)[C@H]([C@H](OC(=O)c3ccccc3)[C@]3(O)C[C@H](OC(=O)[C@H](O)[C@@H](NC(=O)c4ccccc4)c4ccccc4)C(C)=C1C3(C)C)[C@]1(OC(C)=O)CO[C@@H]1C[C@@H]2O [Taxol, taxol, reference compound]","Corbett Assay, Differential in Zone Units",[1]; [23],≥ 400 zone units
same,"Corbett Assay, Type of Cytotoxicity",[1]; [23],M/H/T
COc1ccc(C[C@H]2NC(=O)/C=C/C[C@@H]([C@H](C)/C=C/c3ccccc3)OC(=O)[C@H](CC(C)C)OC(=O)[C@H](C)CNC2=O)cc1 [Cryptophycin 4],"Corbett Assay, Differential in Zone Units",[1]; [23],> 400 zone units
same,"Corbett Assay, Type of Cytotoxicity",[1]; [23],E/T
COc1ccc(C[C@H]2NC(=O)/C=C/C[C@@H]([C@H](C)[C@@H](O)[C@@H](Cl)c3ccccc3)OC(=O)[C@H](CC(C)C)OC(=O)[C@H](C)CNC2=O)cc1Cl [Cryptophycin 8],Log Kill,[4]; [24],None
same,T/C,[4]; [24],> 100%
same,% Body Wt. Loss at Nadir,"[4]; Exp 1887B, SC C38, 6 inj. IV, 30 mg/kg TD",-2%
same,"Corbett Assay, Differential in Zone Units",[1],> 500
same,"Corbett Assay, Type of Cytotoxicity",[1]; [23],E/T
same,Cures,"[10]; Exp 1885, 7 inj. IV, 21.3 mg/kg TD",0/5
same,Cures,[12]; summary b279,some cures
same,gross log kill activity ratings,[12]; summary b279,+++ to ++++
same,tumor burden T/C values,[12],< 10%
same,Cures,"[15]; Exp 1900, 9 inj. IV, 67.5 mg/kg TD",0/5
same,Cures,"[19]; Exp 1825, SC P03, 11 inj. IV, 106 mg/kg TD",0/5
same,cause of lethal toxicity observed during testing,[17],attributed to leucopenia
COc1ccc(C[C@H]2NC(=O)/C=C/C[C@@H]([C@H](C)[C@H]3O[C@@H]3c3ccccc3)OC(=O)[C@H](CC(C)C)OC(=O)C(C)(C)CNC2=O)cc1Cl [Cryptophycin 52],gross (tumor cell) log kill,[20],< 2
same,tumor burden T/C,[20],4%
same,IC50's,[3],0.025 to 0.05 ng/mL
same,in vivo antitumor activity,[12],antitumor activity is seen at sublethal levels; also recorded: comparable in vivo activity to Cryptophycin 1
same,gross (tumor cell) log kill,[19]; [25],< 2
same,tumor burden T/C,[19]; [25],16%
same,acute and chronic toxicities,[17]; in mice,greater than Cryptophycin 1
CC[C@]1(O)C[C@@H]2CN(CCc3c([nH]c4ccccc34)[C@@](C(=O)OC)(c3cc4c(cc3OC)N(C)[C@H]3[C@@](O)(C(=O)OC)[C@H](OC(C)=O)[C@]5(CC)C=CCN6CC[C@]43[C@@H]65)C2)C1 [Vinblastine],effect on taxol-stabilized microtubules,"[21]; A-10 cells pretreated 3 hours with 10 μM taxol, then 100 nM vinblastine or 10 nM cryptophycin compound, 24 hours",pretreatment with taxol prevented microtubule depolymerization
same,effect on vimentin intermediate filaments,"[21]; A-10 cells, 24 hours, 100 nM vinblastine or 10 nM cryptophycin compounds",vimentin intermediate filaments collapsed
same,effect on microtubules,"[21]; A-10 cells, 24 hours, 2 μM cytochalasin B, 100 nM vinblastine or 10 nM cryptophycin compounds",marked depletion of microtubles
same,reversibility of microtubule depolymerization after removal of compound,"[21]; A-10 cells, 24 hr with 100 nM vinblastine or 10 nM cryptophycins, then drug-free medium 1 hour or 24 hours",complete morphological recovery by 24 hour
same,increase in cell number in the 24 hours following removal of the drug,[22],approximately 3 fold
